Where a SMILES comes first, the peptide text is derived from it. The star is where a group is joined. X1 = CCCCCCCCCCCCCCNC(=O)OC[C@H](C*)OC(=O)NCCCCCCCCCCCCCC; Palmitoyl = CCCCCCCCCCCCCCCC(=O)*
Key:
splenic B cells = assay: B cell activation markers in vitro; type: cell-based, mice; conditions: 200 nM, 2 × 10^6 cells/mL, 24 h
Text: Splenic DCs were purified as described previously ([37]). CD8^+ cDCs expanded by B16-Flt3L inoculation were enriched, and then CD8^+ cDCs were positively sorted by MACS technology (Miltenyi Biotec). Splenic B cells were purified through negative selection by Streptavidin-MicroBeads (Miltenyi Biotec 130-048-102) combined with different antibodies cocktail to exclude non-B cells. The antibodies cocktail was composed of biotinylated antibodies against CD4 (T cells and DCs) (eBioscience, clone GK1.5), CD8 (T cells and DCs) (eBioscience, clone 53-6.7), CD43 (T cells, monocytes, granulocytes) (eBioscience, clone eBioR2/60), and Ter119 (erythrocytes) (eBioscience, clone TER119). B cells were further purified through MACS LS column (Miltenyi Biotec 130-042-401).
Figure 7 SUP3 promoted stronger B cell activation in vitro. Purified splenic B cells (2 × 10^6 cells/mL) were treated with SUP3 (200 nM), Pam3 (200 nM), or lipopolysaccharide (LPS) (1.5 µg/mL), respectively. (A) Surface CD25, CD40, and CD86 were stained 24 h post-stimulation. (B) Supernatants were harvested 3 or 5 days post-stimulation, and total IgM in the supernatant was determined by ELISA. Representative data was from two independent experiments with triplicated wells in each group (**p < 0.01).

CD8^+ cDCs = assay: Antigen cross-presentation by splenic CD8+ cDCs to OT-I CD8+ T cells in vitro; type: cell-based, mice; conditions: 200 nM; SUP3 versus Pam3
Experimental: Antigen presentation assays were performed as previously described ([38]). Briefly, ovalbumin (OVA) (10 µg/mL; Sigma A7641) pulsed cDCs were stimulated with or without TLR agonists for 4 h. OT-I CD8^+ T cells and OT-II CD4^+ T cells were purified and then labeled by carboxyfluorescein diacetate succinimidyl ester (CFSE) (1 µM; Molecular Probes C34554). CD8^+ cDCs were cocultured with OT-I CD8^+ T cells for 60 h, whereas CD11b^+ cDCs were cocultured with OT-II CD4^+ T cells for 96 h, both in the presence of granulocyte-macrophage colony-stimulating factor (GM-CSF) (20 ng/mL; Peprotech 315-03). Proliferated OT-I or OT-II T cells were defined as diluted CFSE signal analyzed by flow cytometry. The numbers of T cells were counted by AccuCheck counting beads (Molecular Probes PCB100). […] Cells were washed twice with cold medium and analyzed by flow cytometry.
Figure 3 SUP3 facilitated cross-presentation of ovalbumin (OVA) antigen by CD8^+ conventional dendritic cells (cDCs) in vitro. […] Cells were washed and cocultured with carboxyfluorescein diacetate succinimidyl ester (CFSE)-labeled OT-I CD8^+ T cells for 60 h and analyzed by flow cytometry. (A) The dividing OT-I cells were measured by reduced level of CFSE-labeling. […] (B) Absolute numbers of proliferated OT-I T cells were calculated. (C) Interferon-γ from the supernatant of coculture was determined by ELISA 24 h later. […]

splenic CD8^+ cDCs = assay: CD40 and CD86 expression on splenic CD8+ cDCs after i.v. administration; type: in vivo, mice; conditions: 2 nmol per mouse i.v., 1 h
Experimental: Figure 4 SUP3 stimulated maturation of CD8^+ conventional dendritic cells (cDCs). (A) Purified CD8^+ cDCs were treated with SUP3 (200 nM) or Pam3 (200 nM) in the presence of granulocyte-macrophage colony-stimulating factor (GM-CSF) (20 ng/mL) for 24 h. The surface expression of costimulatory and major histocompatibility complex (MHC) molecules were then analyzed by flow cytometry. Representative data from three independent experiments were shown. “Isotype” represented relative isotype antibody staining of Pam3 or SUP3 stimulated cells. (B) SUP3 (2 nmol per mouse), Pam3 (2 nmol per mouse), or PBS were i.v. injected into mice for 1 h. Splenic CD8^+ cDCs were enriched, and surface expression of CD40 and CD86 was analyzed by flow cytometry. Representative data from two independent experiments with three mice for each group were shown. (C) Purified CD8^+ cDCs were treated with SUP3 (200 nM) or Pam3 (200 nM) for indicated periods (0~120 min), and western blot analysis was performed with the cell lysate for phosphorylated p65 (p-p65), IκBα, p-ERK, ERK, p-JNK, JNK, p-p38, and p38. Blot of p38 was also regarded as loading control. (D) Purified CD8^+ cDCs were treated with CpG 1668 (20 nM), SUP3 (200 nM), or Pam3 (200 nM) in the presence of GM-CSF (20 ng/mL). Supernatants were harvested 24 and 48 h post-stimulation, and cytokines were measured by ELISA. […]

CCCCCCCCCCCCCCCC(=O)N[C@@H](CSC[C@@H](COC(=O)NCCCCCCCCCCCCCC)OC(=O)NCCCCCCCCCCCCCC)C(=O)NCC(=O)N[C@@H](CCCCN)C(=O)N[C@@H](CCCCN)C(=O)N[C@@H](CCCCN)C(=O)O [SUP3, (2S,5S,8S,14R,18R)-2,5,8-tris(4-aminobutyl)-4,7,10,13,21-pentaoxo-14-palmitamido-18-((tetradecylcarbamoyl)oxy)-20-oxa-16-thia-3,6,9,12,22-pentaazahexatriacontan-1-oic acid] (Palmitoyl-C(X1)GKKK-OH)
CD25, CD40, and CD86 on B lymphocytes (splenic B cells): marked upregulation
enhancement of cross-presentation by CD8+ cDCs in vitro (CD8^+ cDCs): comparable
expressions of CD40 and CD86 on splenic CD8+ cDCs in vivo (splenic CD8^+ cDCs): increased

Pam3CSK4 [reference compound]
CD25, CD40, and CD86 on B lymphocytes (splenic B cells): marked upregulation
enhancement of cross-presentation by CD8+ cDCs in vitro (CD8^+ cDCs): comparable
expressions of CD40 and CD86 on splenic CD8+ cDCs in vivo (splenic CD8^+ cDCs): increased

Source: PMC5318439, “The Novel Toll-Like Receptor 2 Agonist SUP3 Enhances Antigen Presentation and T Cell Activation by Dendritic Cells” (Frontiers in Immunology, 2017)
